# From ChEMBL document CHEMBL1139548, “Cyclic ADP-ribose analogues containing the methylenebisphosphonate linkage: effect of pyrophosphate modifications on Ca2+ release activity” (J Med Chem, 2005)
# pEC50: −log10 of the molar value.
# Assay: Effective concentration against release of [Ca2+] ions from sea urchin egg
# Type: functional
row,pEC50,SMILES
1,6.52,"N=c1c2ncn3c2ccn1C1OC(COP(=O)(O)CP(=O)(O)OC[C@H]2OC3[C@H](O)C2O)[C@@H](O)[C@H]1O (single isomer, unassigned)"
2,6.07,"N=c1c2ncn3c2ncn1C1OC(COP(=O)(O)CP(=O)(O)OC[C@H]2OC3[C@H](O)C2O)[C@@H](O)[C@H]1O (single isomer, unassigned)"
